Test [1] in a line: 7-month study on body weight loss in 22 test persons administered creatine. The class given is in vivo, human. The procedure:
An experiment was carried out with 22 test persons in order to confirm the weight reducing effect of creatine using the dosage according to the invention. The test persons were instructed for the duration of the experiment not to change their day-to-day habits (diet and physical exercise). In order to find the optimal dosage the test persons were initially divided into three groups with a daily dosage of either 100 mg, 300 mg or 600 mg of creatine. […] The data are reported as so-called body mass index (BMI), which is calculated from the body weight in dilograms divided by the height in meters in square.

For test [2] the following is noted: cited from earlier work.

Regarding `CN(CC(=O)O)C(=N)N` [creatine, N-Amidinosarcosine], the “body weight, reported as body mass index (BMI)” value in test [1] (7-month study, 22 test persons, after the 3 months dosage-finding period, single daily dose of 100 mg) was “a steady decrease of body weight occured”. Besides, the “weight loss in dosage-finding period” value in test [1] (groups with daily dosage of 100 mg, 300 mg or 600 mg of creatine, after 3 months, diet and physical exercise unchanged) is given as “the group with 100 mg had shown the most noticeable weight loss”. In test [2] (daily dosage of at least 15 g to 30 g (0.2 g to 0.4 g per kilogram body weight), physically active test persons, WO 94/02127, Sahelian, Gremion), the body weight entry is listed as “enhancement of body weight”. Also, the fat mass entry in test [2] (high-dose creatine with high muscle strain, Sahelian 1997, Gremion 1995) is “the fat mass is decreased”.

The record behind these values is patent US6433015B1, “Method for reducing body weight” (IPR-Institute for Pharmaceutical Research AG, priority 1997, dated 2002).
